Legend:
C1 lysin = C1 lysin (Streptococcus phage C1, UniProt Q7Y3F3); assay: Competition experiments with monosaccharides or cell wall carbohydrate extracts; format: cell-based, C1 bacteriophage; conditions: 20 mM monosaccharide
Experimental: FIG. 7 is a bar graph illustrating lysin pretreated with […] Sugar (GlcNAc for A, L-Rhamnose for AV, or GalNAc for C), or extracted Group A carbohydrate (10 mg/ml). The black marker indicates buffer pretreatment; the gray marker indicates sugar pretreatment; and the white marker indicates Group A carbohydrate pretreatment.
Competition experiments. The three groups of cells were pretreated with monosaccharide or buffer containing 20 mM monosaccharide (GlcNAc for A, L-rhamnose for AV, or GalNAc for C), or extracted Group A carbohydrate (10 mg/ml) prior to exposure to the C1 lysin.

PlyG lysin = format: cell-based, γ phage of Bacillus anthracis; conditions: for blocking of PlyG's killing ability: bacillus RSVF, competition assay
RSVF1 = conditions: cited from earlier work

Sequence of C1 lysin (Q7Y3F3 whole entry, looked up): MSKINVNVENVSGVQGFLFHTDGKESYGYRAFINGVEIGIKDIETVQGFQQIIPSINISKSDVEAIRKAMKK

Question: Which “effect of competitor on lysin activity” value (C1 lysin; group C cells) does the source give for `CC(=O)N[C@H]1C(O)O[C@H](CO)[C@H](O)[C@@H]1O` (some centres unmarked) [GalNAc, N-acetyl-galactosamine] here?
Answer: no decrease

Question: With `C[C@H](O)[C@H](O)[C@@H](O)[C@@H](O)C=O` [L-Rhamnose] as the compound, how does the “effect of competitor on lysin activity” value (C1 lysin; AV cells) read?
Answer: no decrease

Question: With `CC(=O)N[C@H]1C(O)O[C@H](CO)[C@@H](O)[C@@H]1O` (some centres unmarked) [N-acetylglucosamine] as the compound, how does the “effect of competitor on lysin activity” value (C1 lysin; group A cells) read?
Answer: no decrease

Question: What about the “concentration that could block the lethal action of PlyG” value (PlyG lysin; exponential phase RSVF1, 15 min at 37° C., CFU ml^-1, FIG. 10) of the same compound?
Answer: ≤ 0.5 mM

Question: For `CC(=O)N[C@@H]1C(O)O[C@H](CO)[C@@H](O)[C@@H]1O` (some centres unmarked) [N-acetylmannosamine], which “blocking of PlyG's killing ability” value (PlyG lysin) is on record?
Answer: Neither galactose nor N-acetylmannosamine blocked

Question: Which “blocking of PlyG's killing ability” value (PlyG lysin) does the source give for `O=C[C@H](O)[C@@H](O)[C@@H](O)[C@H](O)CO` [galactose] here?
Answer: Neither galactose nor N-acetylmannosamine blocked

Question: For `CO[C@@H]1[C@@H](OC(N)=O)[C@@H](O)[C@H](Oc2ccc3c(O)c(NC(=O)c4ccc(O)c(CC=C(C)C)c4)c(=O)oc3c2C)OC1(C)C` [novobiocin], which “increase in resistance after EMS mutagenesis” value (RSVF1) is on record?
Answer: 1,000 fold

Question: Which “increase in resistance after EMS mutagenesis” value (RSVF1) does the source give for `[H]/N=C(/N)N[C@H]1[C@H](O)[C@@H](O)[C@H](O[C@@H]2O[C@@H](C)[C@](O)(C=O)[C@H]2O[C@@H]2O[C@@H](CO)[C@H](O)[C@@H](O)[C@@H]2NC)[C@@H](N/C(N)=N\[H])[C@@H]1O` [streptomycin] here?
Answer: 10,000 fold

Source: patent publication US20070207454A1, “Novel method to identify targets for antibiotic development” (priority 2001, published 2007)
